The values that follow come from paper PMC9424906 (Frontiers in Pharmacology, 2022).

Series [1] deals with SARS-CoV-2 (USA_WA1/2020). The series can be described thus: SARS-CoV-2 cytopathic effect (CPE) assay in Vero E6 cells. Type of series: cell-based. Conditions: Severe acute respiratory syndrome coronavirus 2, Vero C1008, 72 h, read-out: EC50, inhibition of SARS-CoV-2 CPE.
Series [2] has as its system SARS-CoV-2 (2019-nCoV/USA-WAl/2020). Type of series: cell-based. The conditions noted are these: EpiAirway 3D HAE tissue model, 24 h.
The test system of series [3] is EpiAirway human tracheobronchial epithelial tissues. Conditions: EpiAirway 3D HAE tissue model.
Series [4] relates to hospitalized COVID-19 patients. Details: method as in Beigel et al., 2020a. The conditions noted are these: treatment group, ref Beigel et al., 2020a; cited from earlier work.
Series [5] has as its system mild to moderate COVID-19 patients at risk of progression to severe disease. Details: method as in Gottlieb et al., 2021. Conditions: early 3-day course, ref Gottlieb et al., 2021; cited from earlier work.
In another series the test system is ENT1. Conditions: cited from earlier work.
The next series deals with ENT2. Conditions: cited from earlier work.
Series [6] deals with mild to moderate COVID-19 patients at high risk of progression to severe disease. Details: method as in https://www.fda.gov/media/154472/download. The conditions noted are these: ref https://www.fda.gov/media/154472/download; cited from earlier work.
The test system of the next series is MDR1. Description: in vitro. The conditions noted are these: dog, MDCK-MDR1, pH 7.4.
Series [7] is described as follows: Bidirectional transport in Caco-2 monolayers. Conditions: human, Caco-2, pH 7.4. (In general: Caco-2 cells form a polarised layer with tight junctions and transporters.)
Another series has as its target T1, BCRP (Homo sapiens, UniProt Q9UNQ0).
T1 construct: host or cells: MDCK (BCRP-MDCK)
T1 sequence (Q9UNQ0 1-655): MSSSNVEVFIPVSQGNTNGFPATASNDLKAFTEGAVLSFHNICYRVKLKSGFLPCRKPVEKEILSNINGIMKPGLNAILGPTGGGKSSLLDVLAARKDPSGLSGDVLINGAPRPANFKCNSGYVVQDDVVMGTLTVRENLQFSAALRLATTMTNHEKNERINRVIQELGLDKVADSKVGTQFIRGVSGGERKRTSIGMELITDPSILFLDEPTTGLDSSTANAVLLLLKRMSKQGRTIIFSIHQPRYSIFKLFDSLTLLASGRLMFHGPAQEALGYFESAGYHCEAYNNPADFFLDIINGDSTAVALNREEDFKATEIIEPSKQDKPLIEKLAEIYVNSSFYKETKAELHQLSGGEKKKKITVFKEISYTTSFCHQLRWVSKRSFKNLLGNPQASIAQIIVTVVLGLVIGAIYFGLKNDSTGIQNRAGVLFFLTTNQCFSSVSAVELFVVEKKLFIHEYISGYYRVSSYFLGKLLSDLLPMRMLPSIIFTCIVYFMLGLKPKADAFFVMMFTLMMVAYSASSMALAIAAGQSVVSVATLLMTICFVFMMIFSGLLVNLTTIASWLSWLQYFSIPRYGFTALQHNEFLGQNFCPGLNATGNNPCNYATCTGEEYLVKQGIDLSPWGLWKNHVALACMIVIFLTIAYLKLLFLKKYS
The series can be described thus: Bidirectional transport in MDCK-BCRP monolayers. Type of series: in vitro ADME. Conditions: dog, pH 7.4; MDCK-BCRP cells; read-out: Efflux ratio of positive control. How it is done:
Caco-2 (American Type Culture Collection), MDR1-MDCK (NIH), and BCRP-MDCK (transfected by Absorption Systems) cell monolayers were grown to confluence on collagen-coated, microporous membranes in 12-well assay plates. Caco-2 cells were cultured for 27 days, MDCK-MDR1 and MDCK-BCRP cells were cultured for 8 days prior to experiments. […] The experiment was carried out in Hanks’ balanced salt solution (HBSS) containing 10 mM HEPES and 15 mM glucose at pH 7.4. HBSS in the receiver chamber also contained 1% bovine serum albumin. Cells were first pre-incubated for 0.5 h in HBSS with or without the specific inhibitor (1 µM valspodar or 0.5 µM Ko143 for MDR1 and BCRP, respectively). […] Cell monolayers were dosed on the apical side (A to B) or basolateral side (B to A) and incubated at 37°C with 5% CO2 in a humidified incubator. Samples were taken from the donor and receiver chambers at 2 h. Each experiment was performed in duplicate. All samples were assayed by LC-MS/MS. The apparent permeability (Papp) and percent recovery were calculated as described previously ([Katoh et al., 2006]; [Xia et al., 2006]; [Li et al., 2008]).

The EC50 is the concentration at which the effect is half-maximal. For `CCC(CC)COC(=O)[C@H](C)N[P@](=O)(OC[C@H]1O[C@@](C#N)(c2ccc3c(N)ncnn23)[C@H](O)[C@@H]1O)Oc1ccccc1` [remdesivir], the EC50 in series [1] worked out at 7.43 µM. The “Potency on viral titer (TCID50) at 24 h” value in series [2] is recorded as “lower potency than EIDD-2801”. The Cytotoxicity entry in [3] is recorded as “did not exhibit any cytotoxicity”. The “Reduction of time to recovery” value in series [4] is 33%. The “Reduction of progression to hospitalization or death” value in series [5] is 87%.
For the compound `O=c1nc(NO)ccn1[C@@H]1O[C@H](CO)[C@@H](O)[C@H]1O` [EIDD-1931, N-hydroxycytidine], the “Inhibitor of ENT1” value in the series on ENT1 was “inhibitors”. The “Inhibitor of ENT2” value in the series on ENT2 is reported as “inhibitors”.
Take `CC(C)C(=O)OC[C@H]1O[C@@H](n2ccc(NO)nc2=O)[C@H](O)[C@@H]1O` [EIDD-2801]: the “Reduction of progression to hospitalization of death compared to placebo” value in [6] is 30%. In addition, in the series on ENT1, the “Inhibitor of ENT1” value was “inhibitors”. Moreover, the “Inhibitor of ENT2” value with ENT2 was “inhibitors”.
Turning to `C[C@H]1O[C@@H](O[C@H]2[C@@H](O)C[C@H](O[C@H]3[C@@H](O)C[C@H](O[C@H]4CC[C@@]5(C)[C@H](CC[C@@H]6[C@@H]5C[C@@H](O)[C@]5(C)[C@@H](C7=CC(=O)OC7)CC[C@]65O)C4)O[C@@H]3C)O[C@@H]2C)C[C@H](O)[C@@H]1O` [digoxin, reference compound], the efflux ratio at 2 h with MDR1 came out at 110; in [7], 27.
Regarding `Nc1nc(Cl)nc2c1ncn2[C@H]1C[C@H](O)[C@@H](CO)O1` [cladribine, reference compound], the figures for the efflux ratio at 2 h (at BCRP; in series [7]) were 153 and 26, respectively.
